The record followed here is patent US9499493B2, “2,4-pyrimidinediamine compounds and their uses” (Rigel Pharmaceuticals, Inc., priority 2002, dated 2016).

Molecules are shown by their SMILES. pIC50: −log10 of the molar value.

The nature of data set [1]: in vitro chromosomal aberration assay.
Data set [2] deals with cultured human mast cells (CHMC). The data set can be described thus: CHMC high cell density IgE activation: TNFalpha. The data set is classed as cell-based. To be noted: anti-IgE activation; read-out: CHMC high density TNF-alpha. Put shortly:
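IgE-sensitized CHMC at 1-2×10^6 cells/ml were pretreated with compound for 1 h at 37 °C (0.5% DMSO final), then anti-IgE-stimulated for 1 h and supernatant collected. Hexosaminidase was read with a fluorogenic substrate. Pellets were re-incubated 7 h with compound before supernatant ELISAs.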

Data set [3] deals with Salmonella-Escherichia coli tester strains.
Data set [4] in a line: Pilot dose finding studies (oral). Particulars: in vivo.
A short description of data set [5]: Mouse model of allergic asthma (ovalbumin). Format: in vivo. To be noted: less stringent protocol; subcutaneously 70 mg/kg in 67% PEG400/33% citrate buffer, 30 minutes prior to challenge. An excerpt:
Mice are sensitized to ovalbumin (chicken protein) in the presence of an adjuvant (Alum) by the intraperitoneal route on day 0 and day 7. One week later, mice are challenged intranasally with ovalbumin on Days 14, 15 and 16 (more stringent model) or on Day 14 (less stringent model). This sensitization and challenge regimen leads to airway hyperresponsiveness and inflammation in the lungs, which are two dominant characteristics of human allergic asthma. In the mouse model, the in vivo airway responses are measured using a whole body plethysmograph which determines the PENH (enhanced Pause, Buxco Electronics). The PENH is a dimensionless value comprised of the peak inspiratory flow (PIF), peak expiratory flow (PEF), time of inspiration, time of expiration and relaxation time, and is considered a validated parameter of airway responsiveness. Responses to allergen challenge (OVA) are compared with animals challenged with saline only. Twenty-four hours after challenge, mice are exposed to increasing doses of methacholine (muscarinic receptor agonist) which results in smooth muscle contraction. […] In addition, a cellular infiltrate in the airway is observed in ovalbumin challenged mice when compared with the saline challenged mice. This cellular infiltrate is mainly characterized by eosinophils, but a smaller influx of neutrophils and mononuclear cells is also present.
The use of this model for the evaluation of small molecule inhibitors of mast cell degranulation has been validated is several ways. First, using mast cell deficient mice (W/W^v) it has been shown that the ovalbumin-induced responses are dependent upon the presence of mast cells.

The next data set has as its system CHMC cells. The data set can be described thus: Phosphorylation of proteins downstream of Syk / LYN kinase in the FcεRI cascade, activated CHMC cells. The data set is classed as cell-based, human. Particulars: varying concentrations, FIG. 10.
The test system of data set [6] is bone marrow derived mast cells (BMMC). In words: BMMC high cell density IgE activation: hexosaminidase. To be noted: anti-IgE, second part of TABLE 1, read-out: BMMC anti-IgE hexos. IC50. The data set is classed as cell-based, mouse. In a few lines:
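IgE-sensitized BMMC at 1-3×10^6 cells/ml preincubated 1 hour at 37° C. with compound (0.5% DMSO), then stimulated 1 hour with DNP-BSA (6× stimulus 60 ng/ml). Supernatant hexosaminidase measured with 2 mM 4-methylumbelliferyl-N-acetyl-glucosaminide substrate at 37° C., read at 5–30 minutes.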

Turning to `CNC(=O)COc1cccc(Nc2ncc(F)c(Nc3ccc4c(c3)NCCO4)n2)c1` [R921219, N4-(1,4-Benzoxazin-6-yl)-5-fluoro-N2-[3-(N-methylamino)carbonylmethyleneoxyphenyl]-2,4-pyrimidinediamine], the clastogenic potential entry in data set [1] is “not found to possess clastogenic potential”. In addition, in data set [2], the pIC50 is 6.72. Moreover, in data set [3], the Ames test result is “test positive in tester strain TA1537, with and without metabolic activation”. Besides, the “multiple (7-day) doses not tolerated” value in data set [4] is recorded as no less than 200 mg/kg/day. For the same compound, the “ovalbumin-induced airway hyperresponsiveness and cellular influx” value in data set [5] was “completely blocked”. Moreover, the “phosphorylation of proteins downstream of Syk kinase” value with CHMC cells is “inhibit”.

For `CNC(=O)COc1cccc(Nc2ncc(F)c(Nc3cccc(O)c3)n2)c1` [R926508, 5-Fluoro-N4-(3-hydroxyphenyl)-N2-[3-(N-methylamino)carbonylmethyleneoxyphenyl]-2,4-pyrimidinediamine], the pIC50 in data set [6] was 7.07.
